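Values below derive from 48-hour exposures of cells grown in 96-well plates, with endpoints linearly interpolated between the two concentrations bracketing the appropriate inhibition level. Definition used: TGI = concentration required for complete inhibition of growth.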
Key:
Assay in all cases: inhibition of tumour cell growth, NCI panel, 48 h
[1] = system: MDA-N
[2] = system: A498 renal
[3] = system: MOLT-4 leukemia
[4] = system: HOP-62 NSCLC
[5] = system: T-47D breast
[6] = system: UACC-257 melanoma
[7] = system: K-562 leukemia
[8] = system: OVCAR-5 ovarian
[9] = system: MDA-MB-435
[10] = system: NCI-H522 lung
[11] = system: COLO 205 colon
[12] = system: LOX IMVI melanoma
[13] = system: MDA-MB-231 breast
[14] = system: MCF7 breast
[15] = system: ACHN renal
[16] = system: HT29 colon
[17] = system: BT-549 breast
[18] = system: SK-MEL-2 melanoma
[19] = system: NCI-H226 lung
[20] = system: A549 NSCLC
[21] = system: RPMI-8226 leukemia
[22] = system: SK-OV-3 ovarian
[23] = system: SR leukemia
[24] = system: 786-0 renal
[25] = system: TK-10 renal
[26] = system: NCI-H460 lung
[27] = system: EKVX NSCLC
[28] = system: UACC-62 melanoma
[29] = system: SNB-75 CNS
[30] = system: SK-MEL-5 melanoma
[31] = system: SF-539 CNS
[32] = system: HS 578T breast
[33] = system: KM12 colon
[34] = system: SK-MEL-28 melanoma
[35] = system: OVCAR-3 ovarian
[36] = system: SF-268 CNS
[37] = system: NCI-H23 lung
[38] = system: SF-295 CNS
[39] = system: PC-3 prostate
[40] = system: RXF 393 renal
[41] = system: OVCAR-8 ovarian
[42] = system: CCRF-CEM leukemia
[43] = system: UO-31 renal
[44] = system: DU-145 prostate
[45] = system: CAKI-1 renal
[46] = system: SW-620 colon
[47] = system: MALME-3M melanoma
[48] = system: SNB-19 CNS
[49] = system: IGROV1 ovarian
[50] = system: NCI/ADR-RES ovarian
[51] = system: U251 CNS
[52] = system: OVCAR-4 ovarian
[53] = system: HL-60(TB) leukemia
[54] = system: HCT-15 colon
[55] = system: M14 melanoma
[56] = system: HOP-92 NSCLC
[57] = system: SN12C renal
[58] = system: HCT-116 colon
[59] = system: HCC-2998 colon

For `Cn1c(=O)c2[nH]c(SCc3ccccn3)nc2n(C)c1=S`, the TGI [1] was over 100 µM, the TGI [2] was 55.2 µM and the TGI [3] was over 100 µM. It also gave a TGI [4] of over 100 µM, a TGI [5] of over 100 µM and a TGI [6] of over 100 µM. For the same molecule, the TGI [7] was over 100 µM, the TGI [8] was over 100 µM and the TGI [9] was over 100 µM. For the same molecule, the TGI [10] was over 100 µM, the TGI [11] was over 100 µM and the TGI [12] was over 100 µM. It also gave a TGI [13] of over 100 µM, a TGI [14] of over 100 µM and a TGI [15] of over 100 µM. For the same molecule, the TGI [16] was over 100 µM, the TGI [17] was over 100 µM and the TGI [18] was over 100 µM. For the same molecule, the TGI [19] was over 100 µM, the TGI [20] was over 100 µM and the TGI [21] was over 100 µM. It also gave a TGI [22] of 66.4 µM, a TGI [23] of over 100 µM and a TGI [24] of over 100 µM. It also gave a TGI [25] of over 100 µM, a TGI [26] of over 100 µM and a TGI [27] of over 100 µM. It also gave a TGI [28] of over 100 µM, a TGI [29] of 45.2 µM and a TGI [30] of over 100 µM. For the same molecule, the TGI [31] was over 100 µM, the TGI [32] was over 100 µM and the TGI [33] was over 100 µM. For the same molecule, the TGI [34] was over 100 µM, the TGI [35] was over 100 µM and the TGI [36] was over 100 µM. It also gave a TGI [37] of over 100 µM, a TGI [38] of over 100 µM and a TGI [39] of over 100 µM. For the same molecule, the TGI [40] was over 100 µM, the TGI [41] was over 100 µM and the TGI [42] was over 100 µM. For the same molecule, the TGI [43] was over 100 µM, the TGI [44] was over 100 µM and the TGI [45] was over 100 µM. The TGI [46] was over 100 µM, the TGI [47] was over 100 µM and the TGI [48] was over 100 µM. For the same molecule, the TGI [49] was over 100 µM, the TGI [50] was over 100 µM and the TGI [51] was over 100 µM. It also gave a TGI [52] of over 100 µM, a TGI [53] of over 100 µM and a TGI [54] of over 100 µM. It also gave a TGI [55] of over 100 µM, a TGI [56] of over 100 µM and a TGI [57] of over 100 µM. For the same molecule, the TGI [58] was over 100 µM.
`COC(=O)c1ccc(C=Nc2ccc(S(N)(=O)=O)cc2)cc1` gave a TGI [1] of over 100 µM, a TGI [2] of over 100 µM and a TGI [3] of over 100 µM. The TGI [4] was over 100 µM, the TGI [5] was over 100 µM and the TGI [6] was over 100 µM. For the same molecule, the TGI [8] was over 100 µM, the TGI [9] was over 100 µM and the TGI [11] was over 100 µM. It also gave a TGI [12] of over 100 µM, a TGI [13] of over 100 µM and a TGI [14] of over 100 µM. It also gave a TGI [15] of over 100 µM, a TGI [16] of over 100 µM and a TGI [17] of over 100 µM. It also gave a TGI [18] of over 100 µM, a TGI [19] of over 100 µM and a TGI [20] of over 100 µM. For the same molecule, the TGI [21] was 86.2 µM, the TGI [22] was over 100 µM and the TGI [23] was over 100 µM. For the same molecule, the TGI [24] was over 100 µM, the TGI [25] was over 100 µM and the TGI [26] was over 100 µM. It also gave a TGI [27] of over 100 µM, a TGI [28] of over 100 µM and a TGI [29] of over 100 µM. The TGI [30] was over 100 µM, the TGI [59] was over 100 µM and the TGI [31] was over 100 µM. For the same molecule, the TGI [32] was over 100 µM, the TGI [33] was over 100 µM and the TGI [34] was over 100 µM. It also gave a TGI [35] of over 100 µM, a TGI [36] of over 100 µM and a TGI [38] of over 100 µM. It also gave a TGI [39] of over 100 µM, a TGI [40] of over 100 µM and a TGI [41] of over 100 µM. The TGI [42] was 83 µM, the TGI [43] was over 100 µM and the TGI [44] was over 100 µM. For the same molecule, the TGI [45] was over 100 µM, the TGI [47] was over 100 µM and the TGI [48] was over 100 µM. It also gave a TGI [50] of over 100 µM, a TGI [51] of over 100 µM and a TGI [52] of over 100 µM. The TGI [53] was over 100 µM, the TGI [54] was over 100 µM and the TGI [55] was over 100 µM. It also gave a TGI [56] of over 100 µM, a TGI [57] of over 100 µM and a TGI [58] of over 100 µM.
Molecule `C=C1C(=O)O[C@@]23C1CC[C@@H](C)C2CC[C@@]1(C)OC31` (stereo not given in full) has a TGI [1] of 23.1 µM, a TGI [2] of 59.1 µM and a TGI [3] of 31.8 µM. The TGI [4] was 39.3 µM, the TGI [5] was 19.2 µM and the TGI [6] was 24.4 µM. The TGI [7] was 66.1 µM, the TGI [8] was 26.7 µM and the TGI [9] was 23 µM. The TGI [10] was 20.2 µM, the TGI [11] was 3.68 µM and the TGI [12] was 26.6 µM. It also gave a TGI [14] of 24.9 µM, a TGI [15] of 27.1 µM and a TGI [16] of 25.6 µM. For the same molecule, the TGI [17] was 23.7 µM, the TGI [18] was 23.9 µM and the TGI [19] was 47.9 µM. For the same molecule, the TGI [20] was over 100 µM, the TGI [21] was 16.8 µM and the TGI [22] was 47.6 µM. It also gave a TGI [23] of 33.2 µM, a TGI [24] of 26.6 µM and a TGI [25] of 16.8 µM. The TGI [26] was 35.2 µM, the TGI [27] was 30.5 µM and the TGI [28] was 27.1 µM. For the same molecule, the TGI [29] was 8.52 µM, the TGI [30] was 12.3 µM and the TGI [59] was 16.2 µM. For the same molecule, the TGI [31] was 12.2 µM, the TGI [32] was 46.5 µM and the TGI [33] was 45.7 µM. The TGI [34] was 22.6 µM, the TGI [35] was 13.4 µM and the TGI [36] was 34.3 µM. It also gave a TGI [37] of 20.6 µM, a TGI [38] of 48.9 µM and a TGI [39] of 18.7 µM. The TGI [40] was 39.9 µM, the TGI [41] was 56.5 µM and the TGI [42] was 15.9 µM. It also gave a TGI [43] of 18.5 µM, a TGI [44] of 35.5 µM and a TGI [45] of 18.4 µM. It also gave a TGI [46] of 37.5 µM, a TGI [47] of 7.59 µM and a TGI [48] of 47.4 µM. It also gave a TGI [49] of 32.3 µM, a TGI [50] of 48.4 µM and a TGI [51] of 19.3 µM. The TGI [52] was 25.3 µM, the TGI [53] was 10.6 µM and the TGI [54] was 30.3 µM. For the same molecule, the TGI [55] was 12.9 µM, the TGI [56] was 24.2 µM and the TGI [57] was 21.5 µM. The TGI [58] was 21.3 µM.
